Literature values in patent publication US9072782B2, “Gadolinium complex, method for preparing same, and MRI contrast agent comprising same” (CATHLOIC UNIVERSITY INDUSTRY ACADEMIC COOPERATION FOUNDATION, priority 2009, dated 2015).

Tests used:
[1] = Hiroki Yoshikawa et al., Gazoshindan 1986
[2] = prior DTPA-Gd

In the case of O=C([O-])CN(CCN(CC(=O)[O-])CC(=O)O)CCN(CC(=O)[O-])CC(=O)O.[Gd+3] [DTPA-Gd], the half-life [1] is listed as “about 14 minutes” and the “time taken to be washed out from tissue” value [2] is listed as “about 30 minutes”.
